Data: patent US8268827B2, “Pyridazinone derivatives as PARP inhibitors” (Istituto di Ricerche di Biologia Molecolare P. Angeletti …, priority 2007, dated 2012)

Tested on: BRCA-1 silenced HeLa cells (HeLa shBRCA1-GFP)
Experiment: Proliferation assay in BRCA-1 silenced HeLa cells
Type: cell-based
Conditions: Homo sapiens; BRCA1 silenced HeLa cells, 168 hours; read-out: CC50 in the BRCA1 silenced HeLa cells
Procedure, shortened: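 HeLa cells with lentiviral shRNA BRCA1 knockdown (>80%), compared with control-vector HeLa, seeded at 300 cells/well. Compound exposure lasted 168 h at 37° C. Viability was read as resazurin-to-resorufin fluorescence (ex 550/em 590 nm).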

Row | SMILES | CC50 [µM]
1 | Cc1c(Cc2ccc(F)c(C(=O)N3CC(=O)N(c4cccc(Cl)c4)[C@H](C)C3)c2)n[nH]c(=O)c1C [Example 178, 6-(3-{[(3R)-4-(3-Chlorophenyl)-3-methyl-5-oxopiperazin-1-yl]carbonyl}-4-fluorobenzyl)-4,5-dimethylpyridazin-3(2H)-one] | < 0.05
2 | COC[C@@H](C)N1CCN(C(=O)c2cc(Cc3n[nH]c(=O)c(C)c3C)ccc2F)CC1=O [Example 179, 6-[4-Fluoro-3-({4-[(1R)-2-methoxy-1-methylethyl]-3-oxopiperazin-1-yl}carbonyl)benzyl]-4,5-dimethylpyridazin-3(2H)-one] | < 5
3 | CC[C@@H]1CN(C(=O)c2cc(Cc3n[nH]c(=O)c(C)c3C)ccc2F)CC(=O)N1C1CCC1 [Example 180, 6-(3-{[(3R)-4-Cyclobutyl-3-ethyl-5-oxopiperazin-1-yl]carbonyl}-4-fluorobenzyl)-4,5-dimethylpyridazin-3(2H)-one] | < 5
4 | CCC1CN(C(=O)c2cc(Cc3n[nH]c(=O)c(C)c3C)ccc2F)CC(=O)N1C1CCCCC1 (stereo not drawn) [Example 184, 6-{3-[(4-Cyclohexyl-3-ethyl-5-oxopiperazin-1-yl)carbonyl]-4-fluorobenzyl}-4,5-dimethylpyridazin-3(2H)-one] | 0.05 to 0.5
5 | CCC1CN(C(=O)c2cc(Cc3n[nH]c(=O)c(C)c3C)ccc2F)CC(=O)N1C1CCCC1 (stereo not drawn) [Example 186, 6-{3-[(4-Cyclopentyl-3-ethyl-5-oxopiperazin-1-yl)carbonyl]-4-fluorobenzyl}-4,5-dimethylpyridazin-3(2H)-one] | < 5
6 | Cc1c(Cc2ccc(F)c(C(=O)N3CC(=O)N(c4ccc(Cl)c(F)c4)[C@H](C)C3)c2)n[nH]c(=O)c1C [Example 187, 6-(3-{[(3R)-4-(4-Chloro-3-fluorophenyl)-3-methyl-5-oxopiperazin-1-yl]carbonyl}-4-fluorobenzyl)-4,5-dimethylpyridazin-3(2H)-one] | < 0.05
7 | Cc1c(Cc2ccc(F)c(C(=O)N3CC(=O)N(C4CC(F)(F)C4)C(C)C3)c2)n[nH]c(=O)c1C (stereo not drawn) [Example 188, 6-(3-{[4-(3,3-Difluorocyclobutyl)-3-methyl-5-oxopiperazin-1-yl]carbonyl}-4-fluorobenzyl)-4,5-dimethylpyridazin-3(2H)-one] | < 0.05
8 | Cc1c(Cc2ccc(F)c(C(=O)N3CC(=O)N(c4ccc(C#N)cc4)[C@H](C)C3)c2)n[nH]c(=O)c1C [Example 189, 4-((2R)-4-{5-[(4,5-Dimethyl-6-oxo-1,6-dihydropyridazin-3-yl)methyl]-2-fluorobenzoyl}-2-methyl-6-oxopiperazin-1-yl)benzonitrile] | < 0.05
9 | Cc1c(Cc2ccc(F)c(C(=O)N3CC(=O)N(c4ccc(C#N)c(F)c4)[C@H](C)C3)c2)n[nH]c(=O)c1C [Example 191, 4-((2R)-4-{5-[(4,5-Dimethyl-6-oxo-1,6-dihydropyridazin-3-yl)methyl]-2-fluorobenzoyl}-2-methyl-6-oxopiperazin-1-yl)-2-fluorobenzonitrile] | < 0.05
10 | Cc1c(Cc2ccc(F)c(C(=O)N3CCN([C@@H](C)C(F)(F)F)C(=O)C3)c2)n[nH]c(=O)c1C [Example 192, 6-[4-Fluoro-3-({3-oxo-4-[(1S)-2,2,2-trifluoro-1-methylethyl]piperazin-1-yl}carbonyl)benzyl]-4,5-dimethylpyridazin-3(2H)-one] | 0.05 to 0.5
11 | Cc1c(Cc2ccc(F)c(C(=O)N3CC(=O)N(c4cc(F)cc(F)c4)[C@H](C)C3)c2)n[nH]c(=O)c1C [Example 193, 6-(3-{[(3R)-4-(3,5-Difluorophenyl)-3-methyl-5-oxopiperazin-1-yl]carbonyl}-4-fluorobenzyl)-4,5-dimethylpyridazin-3(2H)-one] | < 0.05
12 | Cc1c(Cc2ccc(F)c(C(=O)N3CC(=O)N(c4ccc(Cl)cc4)[C@H](C)C3)c2)n[nH]c(=O)c1C [Example 194, 6-(3-{[(3R)-4-(4-Chlorophenyl)-3-methyl-5-oxopiperazin-1-yl]carbonyl}-4-fluorobenzyl)-4,5-dimethylpyridazin-3(2H)-one] | < 0.05
